This is an account of results in US9597407B2, “Targeted antimicrobial moieties” (C3 Jian, Inc., priority 2009, dated 2017).

“Also recorded” adds a separate entry of the source.

The test concerns bacteria. As to the kind of experiment: Binding of targeting peptides to microorganisms (Table 3). Conditions: microorganism bound by the targeting peptide; binding in aqueous buffers chosen by peptide solubility, preferably 1x PBS.
Consider “PF-097 (QPTQGEQGTRPRRPTPMRGLLI; Peptide with targeting and/or antimicrobial activity)”, for which the “Target(s)” value is “C. jeikeium”.
The same measure for “PF-101 (DPVPERQEQACACHRTAKPGK; Peptide with targeting and/or antimicrobial activity)”: “S. mutans”; for “PF-104 (ERTAVNDLWI; Peptide with targeting and/or antimicrobial activity)”: “MRSA and C. jeikeium”; for “PF-130 (LQRSDEESMPRRHEKYS; Peptide with targeting and/or antimicrobial activity)”: “E. faecalis; also recorded: C. jeikeium; also recorded: C. jejuni”.
Take “PF-131 (RRAAARTKGNRR; Peptide with targeting and/or antimicrobial activity)”: the “Target(s)” value was “S. epidermidis and E. coli and MRSA and C. jeikeium”.
Consider “PF-132 (RPGDGAAEQGRSR; Peptide with targeting and/or antimicrobial activity)”, for which the “Target(s)” value is reported as “S. epidermidis; also recorded: C. jeikeium”.
To “PF-134 (GKAMKRQDCSAL; Peptide with targeting and/or antimicrobial activity)” belongs “S. epidermidis; also recorded: C. jeikeium”; to “PF-138 (AVHHSLLFR; Peptide with targeting and/or antimicrobial activity)”, “S. epidermidis and M. luteus and P. mirabilis and E. coli and C. albicans and MRSA and C. jeikeium and C. jejuni”; to “PF-141 (VVRRFQGM; Peptide with targeting and/or antimicrobial activity)”, “S. epidermidis and M. luteus and C. albicans and MRSA and C. jeikeium”.
To “PF-142 (GIDRGCQAAR; Peptide with targeting and/or antimicrobial activity)” belongs “S. mutans”; to “PF-146 (GCGKRRIITKSASRDTR; Peptide with targeting and/or antimicrobial activity)”, “S. epidermidis and M. luteus and P. aeruginosa and C. albicans and MRSA and C. jeikeium”.
The same measure for “PF-147 (RRPRRRRSGHGQSASAA; Peptide with targeting and/or antimicrobial activity)”: “S. epidermidis and M. luteus and MRSA”; for “PF-150 (EIQAKGTG; Peptide with targeting and/or antimicrobial activity)”: “S. epidermidis and MRSA”.
As to “PF-151 (EEYPARVPLSGEDVTEARRH; Peptide with targeting and/or antimicrobial activity)”, the “Target(s)” value was “S. epidermidis and MRSA and E. faecalis and C. jeikeium”.
Take “PF-152 (VGYFIWKDSHSRKG; Peptide with targeting and/or antimicrobial activity)”: the “Target(s)” value was “S. epidermidis and C. albicans and MRSA and E. faecalis and C. jeikeium”.
Regarding “PF-154 (GIKKSKHPSTDDYVVKTTIDSL; Peptide with targeting and/or antimicrobial activity)”, the “Target(s)” value is given as “S. mutans”.
To “PF-155 (GRYGDDSKERQGRAQ; Peptide with targeting and/or antimicrobial activity)” belongs “C. jeikeium”; to “PF-158 (VRLESRPADLPE; Peptide with targeting and/or antimicrobial activity)”, “S. epidermidis”.
To “PF-159 (TMAFVEKAQLRVPVGDDLPV; Peptide with targeting and/or antimicrobial activity)” belongs “S. epidermidis”; to “PF-160 (SFHASLTKNEKPIKSTG; Peptide with targeting and/or antimicrobial activity)”, “S. epidermidis”.
To “PF-161 (RGRALASTATTRPARRRR; Peptide with targeting and/or antimicrobial activity)” belongs “S. epidermidis; also recorded: M. luteus; also recorded: E. coli; also recorded: C. jejuni”.
In the case of “PF-162 (GIRRLHSVENLNREISHRMAGLR; Peptide with targeting and/or antimicrobial activity)”, the “Target(s)” value was “S. epidermidis and MRSA”.
To “PF-163 (TSWLRAAERQEIGEPTKTFGEKTTSL; Peptide with targeting and/or antimicrobial activity)” belongs “S. epidermidis”; to “PF-165 (GPVSVVASLRRGTTVQRHSQNNHNKGKP; Peptide with targeting and/or antimicrobial activity)”, “MRSA and C. jejuni”.
To “PF-166 (SKAVSRKRSI; Peptide with targeting and/or antimicrobial activity)” belongs “E. coli; also recorded: C. jeikeium”.
The same measure for “PF-169 (APGSAADSPRSRADD; Peptide with targeting and/or antimicrobial activity)”: “S. epidermidis; also recorded: E. coli; also recorded: C. albicans; also recorded: E. faecalis; also recorded: C. jeikeium”; for “PF-172 (LTGVRRPWRAPWAGTSGWALR; Peptide with targeting and/or antimicrobial activity)”: “S. epidermidis and M. luteus and E. coli and P. aeruginosa and MRSA and E. faecalis and C. jejuni”; for “PF-174 (RGGDSPARRRPGLAGPGGPG; Peptide with targeting and/or antimicrobial activity)”: “S. epidermidis; also recorded: P. aeruginosa; also recorded: C. jeikeium”.
Turning to “PF-177 (VTSEPGIAHDIRLLPRAAAFR; Peptide with targeting and/or antimicrobial activity)”, the “Target(s)” value was “M. luteus and MRSA and E. faecalis and C. jeikeium”.
With “PF-181 (GIAPRRNEWGAVGGR; Peptide with targeting and/or antimicrobial activity)”, the “Target(s)” value is “S. epidermidis and M. luteus and E. coli and MRSA and E. faecalis and C. jeikeium”.
To “PF-182 (LPATRDKTRVPASVAGAP; Peptide with targeting and/or antimicrobial activity)” belongs “S. epidermidis; also recorded: M. luteus; also recorded: E. coli; also recorded: E. faecalis; also recorded: C. jeikeium”; to “PF-183 (KPGISVENRQ; Peptide with targeting and/or antimicrobial activity)”, “S. epidermidis and M. luteus and E. coli and C. albicans and MRSA and E. faecalis and C. jeikeium”; to “PF-184 (LIADRHIRA; Peptide with targeting and/or antimicrobial activity)”, “S. epidermidis and M. luteus and E. coli and P. aeruginosa and C. albicans and MRSA and C. jeikeium”.
As to “PF-185 (RPAQARQGPGGLIADRHIRA; Peptide with targeting and/or antimicrobial activity)”, the “Target(s)” value is on record as “E. coli; also recorded: P. aeruginosa”.
As to “PF-187 (EIQKIAKGVSGQVYGPSRQITISKKR; Peptide with targeting and/or antimicrobial activity)”, the “Target(s)” value was “S. epidermidis and M. luteus and E. coli and MRSA”.
To “PF-189 (GNLTRSREAARATQ; Peptide with targeting and/or antimicrobial activity)” belongs “S. epidermidis and M. luteus and C. albicans and MRSA and E. faecalis and C. jejuni”.
As to “PF-193 (PPHCPPGHAKKGWC; Peptide with targeting and/or antimicrobial activity)”, the “Target(s)” value is “S. epidermidis and M. luteus and E. coli and MRSA and E. faecalis and C. jejuni”.
The same measure for “PF-194 (MKGNKLATAHEQPVKNSAPPL; Peptide with targeting and/or antimicrobial activity)”: “C. jeikeium”.
The same measure for “PF-195 (EMAEGSADDRLRKTPRDC; Peptide with targeting and/or antimicrobial activity)”: “S. epidermidis; also recorded: M. luteus; also recorded: E. faecalis; also recorded: C. jeikeium”; for “PF-197 (CNALLRRGHPPSAL; Peptide with targeting and/or antimicrobial activity)”: “S. epidermidis; also recorded: M. luteus; also recorded: C. albicans; also recorded: E. faecalis; also recorded: C. jejuni”.
Turning to “PF-200 (GIELKSLIMAQIERWRQA; Peptide with targeting and/or antimicrobial activity)”, the “Target(s)” value was “S. epidermidis and M. luteus and MRSA and E. faecalis and C. jeikeium”.
The same measure for “PF-201 (GCRPASLSDADPDGR; Peptide with targeting and/or antimicrobial activity)”: “S. epidermidis; also recorded: M. luteus; also recorded: E. coli; also recorded: C. albicans; also recorded: E. faecalis; also recorded: C. jeikeium; also recorded: C. jejuni”; for “PF-202 (ALNRASLRLALGE; Peptide with targeting and/or antimicrobial activity)”: “S. epidermidis and M. luteus and E. coli and MRSA and E. faecalis and C. jeikeium and C. jejuni”.
Take “PF-206 (KLRSASKKSLQEKSCGIMPEKPAG; Peptide with targeting and/or antimicrobial activity)”: the “Target(s)” value is given as “M. luteus; also recorded: C. albicans; also recorded: C. jeikeium; also recorded: C. jejuni”.
To “PF-207 (AAGCRDLGSLSSLVTNPS; Peptide with targeting and/or antimicrobial activity)” belongs “M. luteus; also recorded: C. jeikeium”.
As for “PF-210 (EREDGCDAMPLP; Peptide with targeting and/or antimicrobial activity)”, the “Target(s)” value was “S. epidermidis and P. aeruginosa and C. albicans and MRSA and E. faecalis and C. jeikeium and C. jejuni”.
The same measure for “PF-213 (MTTGVDFIIEKV; Peptide with targeting and/or antimicrobial activity)”: “S. epidermidis”; for “PF-214 (GHLRVCWVFSASLLTPFRSATLI; Peptide with targeting and/or antimicrobial activity)”: “S. mutans; also recorded: S. epidermidis; also recorded: M. luteus; also recorded: E. coli; also recorded: P. aeruginosa; also recorded: A. baumannii”.
The same measure for “PF-216 (ESVDKITEALEEDGFPAKVQ; Peptide with targeting and/or antimicrobial activity)”: “S. mutans; also recorded: E. coli”.
